Experimental data taken from the kinase profiling compilation of Christmann-Franck et al. (2016).

Experiments:
Test in all cases: KINOMEscan competition binding
Conditions in all cases: compound 10.0 µM
[1] = target: MYLK2 (human) (UniProt Q9H1R3)
[2] = target: CDKL3 (human) (UniProt Q8IVW4)
[3] = target: CLK1 (human) (UniProt P49759)
[4] = target: RPS6KA2 KD1 (human) (UniProt Q15349)
[5] = target: IRAK4 (human) (UniProt Q9NWZ3)
[6] = target: STK17B (human) (UniProt O94768)
[7] = target: CDKL5 (human) (UniProt O76039)
[8] = target: CDK13 (human) (UniProt Q14004)
[9] = target: PIK3CB (human) (UniProt P42338)
[10] = target: PIK3CG (human) (UniProt P48736)
[11] = target: PIM3 (human) (UniProt Q86V86)
[12] = target: PDPK1 (human) (UniProt O15530)
[13] = target: HIPK4 (human) (UniProt Q8NE63)
[14] = target: RPS6KA5 KD1 (human) (UniProt O75582)
[15] = target: CSNK1D (human) (UniProt P48730)
[16] = target: MTOR (human) (UniProt P42345)
[17] = target: TAOK3 (human) (UniProt Q9H2K8)
[18] = target: CSNK1G1 (human) (UniProt Q9HCP0)
[19] = target: PTK6 (human) (UniProt Q13882)
[20] = target: MAP3K5 (human) (UniProt Q99683)
[21] = target: STK32A (human) (UniProt Q8WU08)
[22] = target: PDGFRB (human) (UniProt P09619)
[23] = target: MST4 (human) (UniProt Q9P289)
[24] = target: MAPK6 (human) (UniProt Q16659)
[25] = target: TTK (human) (UniProt P33981)
[26] = target: CHUK (human) (UniProt O15111)
[27] = target: EPHA4 (human) (UniProt P54764)
[28] = target: ZAP70 (human) (UniProt P43403)
[29] = target: CDK19 (human) (UniProt Q9BWU1)
[30] = target: TBK1 (human) (UniProt Q9UHD2)
[31] = target: PIK3CA (human) (UniProt P42336)
[32] = target: DCLK2 (human) (UniProt Q8N568)
[33] = target: MAP2K3 (human) (UniProt P46734)
[34] = target: LCK (human) (UniProt P06239)
[35] = target: STK36 (human) (UniProt Q9NRP7)
[36] = target: CDK15 (human) (UniProt Q96Q40)
[37] = target: PTK2 (human) (UniProt Q05397)
[38] = tested on: LRRK2 (human), Q5S007 [G2019S]
[39] = target: CDC42BPG (human) (UniProt Q6DT37)
[40] = target: CDK9 (human) (UniProt P50750)

Chain of MAPK6 (human) (Q16659 whole entry, looked up): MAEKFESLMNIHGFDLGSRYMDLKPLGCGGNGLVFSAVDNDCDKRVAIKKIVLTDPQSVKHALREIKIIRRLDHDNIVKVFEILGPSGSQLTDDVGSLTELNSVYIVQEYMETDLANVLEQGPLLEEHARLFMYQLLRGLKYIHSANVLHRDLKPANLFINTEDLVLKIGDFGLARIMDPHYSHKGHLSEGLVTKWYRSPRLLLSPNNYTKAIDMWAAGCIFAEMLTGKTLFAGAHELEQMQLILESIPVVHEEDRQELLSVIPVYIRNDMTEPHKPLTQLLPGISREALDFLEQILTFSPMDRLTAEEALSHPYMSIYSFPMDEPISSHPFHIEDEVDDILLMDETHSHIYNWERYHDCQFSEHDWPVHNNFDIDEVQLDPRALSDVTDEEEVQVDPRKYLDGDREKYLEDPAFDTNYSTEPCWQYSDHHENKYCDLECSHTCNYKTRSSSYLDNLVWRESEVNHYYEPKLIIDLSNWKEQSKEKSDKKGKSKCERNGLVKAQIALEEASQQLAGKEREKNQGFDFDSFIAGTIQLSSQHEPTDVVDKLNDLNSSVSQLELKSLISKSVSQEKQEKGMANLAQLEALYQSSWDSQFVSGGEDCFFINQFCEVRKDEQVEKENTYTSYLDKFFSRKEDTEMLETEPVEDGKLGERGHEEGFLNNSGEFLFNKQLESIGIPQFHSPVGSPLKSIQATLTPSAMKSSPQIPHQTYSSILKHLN
Chain of PTK6 (human) (Q13882 whole entry, looked up): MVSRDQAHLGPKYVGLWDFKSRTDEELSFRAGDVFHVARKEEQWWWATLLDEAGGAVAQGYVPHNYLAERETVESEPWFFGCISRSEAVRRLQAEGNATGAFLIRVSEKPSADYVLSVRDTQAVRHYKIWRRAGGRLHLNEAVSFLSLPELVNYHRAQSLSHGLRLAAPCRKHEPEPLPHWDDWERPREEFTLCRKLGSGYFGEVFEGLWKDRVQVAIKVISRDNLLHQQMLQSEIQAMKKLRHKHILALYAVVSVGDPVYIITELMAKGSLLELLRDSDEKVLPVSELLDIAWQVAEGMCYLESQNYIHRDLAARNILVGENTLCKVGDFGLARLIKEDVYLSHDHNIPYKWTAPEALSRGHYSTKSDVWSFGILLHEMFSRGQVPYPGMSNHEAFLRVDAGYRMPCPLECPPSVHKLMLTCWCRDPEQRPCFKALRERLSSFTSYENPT
Chain of ZAP70 (human) (P43403 whole entry, looked up): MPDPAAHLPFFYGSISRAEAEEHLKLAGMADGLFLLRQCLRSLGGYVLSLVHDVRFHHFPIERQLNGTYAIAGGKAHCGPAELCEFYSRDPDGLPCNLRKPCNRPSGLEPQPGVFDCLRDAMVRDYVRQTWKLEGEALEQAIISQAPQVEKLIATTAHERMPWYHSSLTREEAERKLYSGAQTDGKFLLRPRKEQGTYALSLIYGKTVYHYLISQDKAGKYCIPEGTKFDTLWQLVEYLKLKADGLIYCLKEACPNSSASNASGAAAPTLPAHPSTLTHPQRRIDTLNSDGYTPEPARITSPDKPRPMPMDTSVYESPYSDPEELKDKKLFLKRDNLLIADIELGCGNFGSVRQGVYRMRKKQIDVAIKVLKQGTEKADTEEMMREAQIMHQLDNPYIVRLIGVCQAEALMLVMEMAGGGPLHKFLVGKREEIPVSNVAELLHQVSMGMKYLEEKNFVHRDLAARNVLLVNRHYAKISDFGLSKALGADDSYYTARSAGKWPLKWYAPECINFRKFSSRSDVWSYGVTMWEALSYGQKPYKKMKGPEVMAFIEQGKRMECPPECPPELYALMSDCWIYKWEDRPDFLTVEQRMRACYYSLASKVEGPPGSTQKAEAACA
Chain of TAOK3 (human) (Q9H2K8 whole entry, looked up): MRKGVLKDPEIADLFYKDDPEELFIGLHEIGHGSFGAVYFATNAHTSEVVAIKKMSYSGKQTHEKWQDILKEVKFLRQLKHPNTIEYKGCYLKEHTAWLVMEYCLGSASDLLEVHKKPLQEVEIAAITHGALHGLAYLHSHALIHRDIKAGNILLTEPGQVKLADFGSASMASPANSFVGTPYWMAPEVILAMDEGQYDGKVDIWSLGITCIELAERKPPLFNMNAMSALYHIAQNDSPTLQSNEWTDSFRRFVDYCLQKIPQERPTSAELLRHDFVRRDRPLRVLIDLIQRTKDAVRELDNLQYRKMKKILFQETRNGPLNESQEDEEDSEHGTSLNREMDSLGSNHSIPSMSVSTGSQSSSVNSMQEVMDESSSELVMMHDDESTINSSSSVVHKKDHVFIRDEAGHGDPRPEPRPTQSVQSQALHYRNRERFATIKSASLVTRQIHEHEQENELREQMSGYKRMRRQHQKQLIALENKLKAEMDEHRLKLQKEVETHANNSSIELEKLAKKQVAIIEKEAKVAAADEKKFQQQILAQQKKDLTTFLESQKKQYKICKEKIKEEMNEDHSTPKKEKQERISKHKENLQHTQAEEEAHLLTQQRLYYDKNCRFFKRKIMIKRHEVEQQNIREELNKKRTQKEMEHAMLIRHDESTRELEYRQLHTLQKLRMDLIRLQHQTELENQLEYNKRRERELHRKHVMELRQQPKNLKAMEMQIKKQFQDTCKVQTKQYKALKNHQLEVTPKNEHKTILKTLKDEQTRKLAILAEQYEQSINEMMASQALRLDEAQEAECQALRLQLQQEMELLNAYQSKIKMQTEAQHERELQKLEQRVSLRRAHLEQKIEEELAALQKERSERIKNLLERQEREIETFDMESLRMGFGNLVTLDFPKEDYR
Chain of MYLK2 (human) (Q9H1R3 whole entry, looked up): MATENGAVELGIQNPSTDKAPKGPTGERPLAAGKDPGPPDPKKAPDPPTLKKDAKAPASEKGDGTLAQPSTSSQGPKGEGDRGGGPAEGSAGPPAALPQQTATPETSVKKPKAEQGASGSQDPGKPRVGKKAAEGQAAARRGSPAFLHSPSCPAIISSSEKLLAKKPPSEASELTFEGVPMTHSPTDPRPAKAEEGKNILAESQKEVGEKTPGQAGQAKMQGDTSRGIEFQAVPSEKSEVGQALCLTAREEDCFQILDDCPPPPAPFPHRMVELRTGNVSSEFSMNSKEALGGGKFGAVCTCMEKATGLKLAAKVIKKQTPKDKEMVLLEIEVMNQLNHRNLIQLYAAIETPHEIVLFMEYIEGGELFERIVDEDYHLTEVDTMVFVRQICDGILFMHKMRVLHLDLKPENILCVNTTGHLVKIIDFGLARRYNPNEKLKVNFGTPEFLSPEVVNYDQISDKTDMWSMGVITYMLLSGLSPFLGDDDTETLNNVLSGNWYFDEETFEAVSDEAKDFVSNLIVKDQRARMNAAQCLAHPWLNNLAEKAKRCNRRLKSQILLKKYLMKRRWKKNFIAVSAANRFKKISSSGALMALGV
Chain of PDGFRB (human) (P09619 whole entry, looked up): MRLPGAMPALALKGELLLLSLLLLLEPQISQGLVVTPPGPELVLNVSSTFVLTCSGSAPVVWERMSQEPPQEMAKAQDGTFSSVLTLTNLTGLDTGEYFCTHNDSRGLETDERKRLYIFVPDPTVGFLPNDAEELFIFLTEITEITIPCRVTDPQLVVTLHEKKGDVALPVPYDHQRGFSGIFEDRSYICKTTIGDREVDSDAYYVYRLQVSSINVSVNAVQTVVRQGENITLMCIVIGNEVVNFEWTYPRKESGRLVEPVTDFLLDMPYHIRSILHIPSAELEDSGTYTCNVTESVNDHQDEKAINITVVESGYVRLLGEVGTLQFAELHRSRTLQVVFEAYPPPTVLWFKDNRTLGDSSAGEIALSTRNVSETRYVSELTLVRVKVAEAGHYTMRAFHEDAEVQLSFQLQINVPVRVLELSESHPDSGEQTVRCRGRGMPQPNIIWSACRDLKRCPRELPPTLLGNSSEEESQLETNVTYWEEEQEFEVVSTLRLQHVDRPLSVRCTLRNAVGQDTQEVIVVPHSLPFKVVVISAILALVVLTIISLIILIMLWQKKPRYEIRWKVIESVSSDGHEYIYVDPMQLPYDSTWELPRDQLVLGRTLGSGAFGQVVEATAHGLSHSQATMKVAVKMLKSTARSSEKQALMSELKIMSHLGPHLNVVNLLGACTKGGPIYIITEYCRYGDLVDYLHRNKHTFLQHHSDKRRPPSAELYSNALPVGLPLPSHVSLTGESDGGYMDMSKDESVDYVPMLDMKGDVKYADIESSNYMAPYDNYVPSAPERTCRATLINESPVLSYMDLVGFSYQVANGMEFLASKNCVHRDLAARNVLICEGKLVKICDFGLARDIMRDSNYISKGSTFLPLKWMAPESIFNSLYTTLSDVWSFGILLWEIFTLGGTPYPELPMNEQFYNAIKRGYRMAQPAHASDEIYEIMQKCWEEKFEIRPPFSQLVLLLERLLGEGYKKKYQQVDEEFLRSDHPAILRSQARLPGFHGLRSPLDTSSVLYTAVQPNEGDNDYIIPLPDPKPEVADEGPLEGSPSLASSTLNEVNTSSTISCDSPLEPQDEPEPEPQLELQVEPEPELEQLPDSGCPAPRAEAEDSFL
Chain of HIPK4 (human) (Q8NE63 whole entry, looked up): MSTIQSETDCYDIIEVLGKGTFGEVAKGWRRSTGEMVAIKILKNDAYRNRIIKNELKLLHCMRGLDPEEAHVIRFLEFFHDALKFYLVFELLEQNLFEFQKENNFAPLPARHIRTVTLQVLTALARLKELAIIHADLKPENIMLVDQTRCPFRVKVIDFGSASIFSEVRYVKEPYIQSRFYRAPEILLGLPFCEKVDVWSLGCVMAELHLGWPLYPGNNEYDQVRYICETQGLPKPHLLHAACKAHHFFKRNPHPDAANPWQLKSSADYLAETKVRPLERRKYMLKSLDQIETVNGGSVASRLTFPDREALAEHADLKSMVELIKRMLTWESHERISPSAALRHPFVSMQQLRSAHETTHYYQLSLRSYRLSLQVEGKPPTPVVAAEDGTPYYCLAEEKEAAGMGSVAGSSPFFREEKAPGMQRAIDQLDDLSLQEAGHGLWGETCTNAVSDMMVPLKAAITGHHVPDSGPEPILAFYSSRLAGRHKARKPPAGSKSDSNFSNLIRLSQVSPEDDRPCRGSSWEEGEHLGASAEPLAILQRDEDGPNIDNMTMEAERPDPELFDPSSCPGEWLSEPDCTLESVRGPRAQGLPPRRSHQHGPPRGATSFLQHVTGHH

Structure (SMILES) | kinase still bound, per cent of control [1] [%] | kinase still bound, per cent of control [2] [%] | kinase still bound, per cent of control [3] [%] | kinase still bound, per cent of control [4] [%] | kinase still bound, per cent of control [5] [%] | kinase still bound, per cent of control [6] [%] | kinase still bound, per cent of control [7] [%] | kinase still bound, per cent of control [8] [%] | kinase still bound, per cent of control [9] [%] | kinase still bound, per cent of control [10] [%] | kinase still bound, per cent of control [11] [%] | kinase still bound, per cent of control [12] [%] | kinase still bound, per cent of control [13] [%] | kinase still bound, per cent of control [14] [%] | kinase still bound, per cent of control [15] [%] | kinase still bound, per cent of control [16] [%] | kinase still bound, per cent of control [17] [%] | kinase still bound, per cent of control [18] [%] | kinase still bound, per cent of control [19] [%] | kinase still bound, per cent of control [20] [%] | also measured
COc1cc2ncnc(Nc3cccc(Cl)c3)c2cc1OC | 40 | 76 | 59 | 85 | 8.9 | 40 | 97 | 91 | 47 | 44 | 54 | 80 | 6.1 | 100 | 54 | 83 | 78 | 100 | 58 | 74 | kinase still bound, per cent of control [21]: 63%; kinase still bound, per cent of control [22]: 30%; kinase still bound, per cent of control [23]: 84%; kinase still bound, per cent of control [24]: 33%; kinase still bound, per cent of control [25]: 61%; kinase still bound, per cent of control [26]: 72%; kinase still bound, per cent of control [27]: 72%; kinase still bound, per cent of control [28]: 78%; kinase still bound, per cent of control [29]: 93%; kinase still bound, per cent of control [30]: 45%; kinase still bound, per cent of control [31]: 76%; kinase still bound, per cent of control [32]: 88%; kinase still bound, per cent of control [33]: 57%; kinase still bound, per cent of control [34]: 5.4%; kinase still bound, per cent of control [35]: 54%; kinase still bound, per cent of control [36]: 75%; kinase still bound, per cent of control [37]: 100%; kinase still bound, per cent of control [38]: 67%; kinase still bound, per cent of control [39]: 56%; kinase still bound, per cent of control [40]: 100%
N#Cc1cc(-c2ccnc(Nc3ccc(-n4cnc(-c5cccnc5)n4)cc3)n2)cc(N2CCOCC2)c1 | 56 | 45 | 2.5 | 73 | 100 | 56 | 7 | 100 | 100 | 0.75 | 78 | 100 | 13 | 100 | 86 | 100 | 28 | 92 | 100 | 100 | kinase still bound, per cent of control [21]: 100%; kinase still bound, per cent of control [22]: 8.2%; kinase still bound, per cent of control [23]: 62%; kinase still bound, per cent of control [24]: 0.95%; kinase still bound, per cent of control [25]: 73%; kinase still bound, per cent of control [26]: 55%; kinase still bound, per cent of control [27]: 79%; kinase still bound, per cent of control [28]: 70%; kinase still bound, per cent of control [29]: 88%; kinase still bound, per cent of control [30]: 35%; kinase still bound, per cent of control [31]: 100%; kinase still bound, per cent of control [32]: 100%; kinase still bound, per cent of control [33]: 18%; kinase still bound, per cent of control [34]: 48%; kinase still bound, per cent of control [35]: 15%; kinase still bound, per cent of control [36]: 55%; kinase still bound, per cent of control [37]: 77%; kinase still bound, per cent of control [38]: 53%; kinase still bound, per cent of control [39]: 63%; kinase still bound, per cent of control [40]: 2.1%
